From ChEMBL document CHEMBL3885881, “DrugMatrix”

Organism: Rattus norvegicus
Experiment: DrugMatrix - Regimen: Daily Repeat
Type: toxicity, organism-based, Sprague-Dawley
Parameters: regimen Daily Repeat, gender Male, age 6-8 weeks
Settings: in vivo, po, route oral GAVAGE, […]; for ABSOLUTE BASOPHIL / ABSOLUTE EOSINOPHIL / ABSOLUTE LYMPHOCYTE / ABSOLUTE MONOCYTE / ABSOLUTE SEGMENTED NEUTROPHIL / BASOPHIL / EOSINOPHIL / ERYTHROCYTE COUNT / HEMATOCRIT / HEMOGLOBIN / LEUKOCYTE COUNT / LYMPHOCYTE / MEAN CORPUSCULAR HEMOGLOBIN / MEAN CORPUSCULAR HEMOGLOBIN CONCENTRATION / MEAN CORPUSCULAR VOLUME / MONOCYTE / NEUTROPHIL / NUCLEATED RED BLOOD CELLS / PLATELET COUNT: tissue Blood; for ALANINE AMINOTRANSFERASE / ALBUMIN / ALKALINE PHOSPHATASE / ASPARTATE AMINOTRANSFERASE / BLOOD UREA NITROGEN / CARBON DIOXIDE / CHLORIDE / CHOLESTEROL / CREATINE PHOSPHOKINASE / CREATININE / GLUCOSE / LACTATE DEHYDROGENASE / LIPASE / PHOSPHORUS / POTASSIUM / SODIUM / TOTAL BILIRUBIN / TOTAL PROTEIN / URIC ACID: tissue Plasma
[1] = 20 mg/kg, 120 h, dose level Low, time 5 day
[2] = 200 mg/kg, 72 h, dose level High, time 3 day
[3] = 200 mg/kg, 120 h, dose level High, time 5 day
[4] = 200 mg/kg, dose level High, time 28 day

CCCCCCCCCc1ccc(O)cc1 [4-NONYLPHENOL]
ABSOLUTE BASOPHIL [1]: 0 CELLS/uL | ABSOLUTE EOSINOPHIL [1]: 0 CELLS/uL | ABSOLUTE LYMPHOCYTE [1]: 17193.33 CELLS/uL | ABSOLUTE MONOCYTE [1]: 138.33 CELLS/uL | ABSOLUTE SEGMENTED NEUTROPHIL [1]: 1901.67 CELLS/uL | BASOPHIL [1]: 0% | EOSINOPHIL [1]: 0% | ERYTHROCYTE COUNT [1]: 5.43 x10E6/uL | HEMATOCRIT [1]: 34.2% | HEMOGLOBIN [1]: 13.17 G/DL | LEUKOCYTE COUNT [1]: 19.23 x10E3/uL | LYMPHOCYTE [1]: 89.67% | MEAN CORPUSCULAR HEMOGLOBIN [1]: 24.2 pg | MEAN CORPUSCULAR HEMOGLOBIN CONCENTRATION [1]: 38.5 G/DL | MEAN CORPUSCULAR VOLUME [1]: 62.9 fL | MONOCYTE [1]: 0.67% | NEUTROPHIL [1]: 9.67% | NUCLEATED RED BLOOD CELLS [1]: 0 /100WBC | PLATELET COUNT [1]: 1124 x10E3/uL | ALANINE AMINOTRANSFERASE [1]: 65.33 u/L | ALBUMIN [1]: 3.77 G/DL | ALKALINE PHOSPHATASE [1]: 413 u/L | ASPARTATE AMINOTRANSFERASE [1]: 82.67 u/L | BLOOD UREA NITROGEN [1]: 15.67 mg/dL | CARBON DIOXIDE [1]: 25.67 mmol/L | CHLORIDE [1]: 102.33 MEQ/L | CHOLESTEROL [1]: 56.33 mg/dL | CREATINE PHOSPHOKINASE [1]: 278 u/L | CREATININE [1]: 0.21 mg/dL | GLUCOSE [1]: 202.33 mg/dL | LACTATE DEHYDROGENASE [1]: 147 u/L | LIPASE [1]: 10.67 u/L | PHOSPHORUS [1]: 10.77 mg/dL | POTASSIUM [1]: 5.35 MEQ/L | SODIUM [1]: 142.1 MEQ/L | TOTAL BILIRUBIN [1]: 0.2 mg/dL | TOTAL PROTEIN [1]: 5.57 G/DL | URIC ACID [1]: 1.3 mg/dL | ABSOLUTE BASOPHIL [2]: 0 CELLS/uL | ABSOLUTE EOSINOPHIL [2]: 0 CELLS/uL | ABSOLUTE LYMPHOCYTE [2]: 7018 CELLS/uL | ABSOLUTE MONOCYTE [2]: 153.33 CELLS/uL | ABSOLUTE SEGMENTED NEUTROPHIL [2]: 495.33 CELLS/uL | BASOPHIL [2]: 0% | EOSINOPHIL [2]: 0% | ERYTHROCYTE COUNT [2]: 5.58 x10E6/uL | HEMATOCRIT [2]: 35.4% | HEMOGLOBIN [2]: 13.8 G/DL | LEUKOCYTE COUNT [2]: 7.67 x10E3/uL | LYMPHOCYTE [2]: 92% | MEAN CORPUSCULAR HEMOGLOBIN [2]: 24.73 pg | MEAN CORPUSCULAR HEMOGLOBIN CONCENTRATION [2]: 39 G/DL | MEAN CORPUSCULAR VOLUME [2]: 63.47 fL | MONOCYTE [2]: 2% | NEUTROPHIL [2]: 6% | NUCLEATED RED BLOOD CELLS [2]: 0 /100WBC | PLATELET COUNT [2]: 1128 x10E3/uL | ALANINE AMINOTRANSFERASE [2]: 81.33 u/L | ALBUMIN [2]: 3.77 G/DL | ALKALINE PHOSPHATASE [2]: 503.67 u/L | ASPARTATE AMINOTRANSFERASE [2]: 95.67 u/L | BLOOD UREA NITROGEN [2]: 14.33 mg/dL | CARBON DIOXIDE [2]: 32 mmol/L | CHLORIDE [2]: 103 MEQ/L | CHOLESTEROL [2]: 45.33 mg/dL | CREATINE PHOSPHOKINASE [2]: 276.67 u/L | CREATININE [2]: 0.21 mg/dL | GLUCOSE [2]: 139 mg/dL | LACTATE DEHYDROGENASE [2]: 138.67 u/L | LIPASE [2]: 10 u/L | PHOSPHORUS [2]: 10.23 mg/dL | POTASSIUM [2]: 5.46 MEQ/L | SODIUM [2]: 145.47 MEQ/L | TOTAL BILIRUBIN [2]: 0.1 mg/dL | TOTAL PROTEIN [2]: 5.47 G/DL | URIC ACID [2]: 0.9 mg/dL | ABSOLUTE BASOPHIL [3]: 0 CELLS/uL | ABSOLUTE EOSINOPHIL [3]: 0 CELLS/uL | ABSOLUTE LYMPHOCYTE [3]: 11098.67 CELLS/uL | ABSOLUTE MONOCYTE [3]: 165.33 CELLS/uL | ABSOLUTE SEGMENTED NEUTROPHIL [3]: 402.67 CELLS/uL | NUCLEATED RED BLOOD CELLS [3]: 0 /100WBC | CARBON DIOXIDE [3]: 26.67 mmol/L | LACTATE DEHYDROGENASE [3]: 116.33 u/L | LIPASE [3]: 10.33 u/L | URIC ACID [3]: 1.43 mg/dL | BASOPHIL [4]: 0.42% | EOSINOPHIL [4]: 0.61% | ERYTHROCYTE COUNT [4]: 8.21 x10E6/uL | HEMATOCRIT [4]: 48.61% | HEMOGLOBIN [4]: 16.26 G/DL | LEUKOCYTE COUNT [4]: 11.53 x10E3/uL | LYMPHOCYTE [4]: 85.82% | MEAN CORPUSCULAR HEMOGLOBIN [4]: 19.84 pg | MEAN CORPUSCULAR HEMOGLOBIN CONCENTRATION [4]: 33.5 G/DL | MEAN CORPUSCULAR VOLUME [4]: 59.24 fL | MONOCYTE [4]: 1.34% | NEUTROPHIL [4]: 10.54% | PLATELET COUNT [4]: 1292.8 x10E3/uL | ALANINE AMINOTRANSFERASE [4]: 29.3 u/L | ALBUMIN [4]: 3.91 G/DL | ALKALINE PHOSPHATASE [4]: 186.6 u/L | ASPARTATE AMINOTRANSFERASE [4]: 70.1 u/L | BLOOD UREA NITROGEN [4]: 11.8 mg/dL | CHLORIDE [4]: 107.1 MEQ/L | CHOLESTEROL [4]: 66 mg/dL | CREATINE PHOSPHOKINASE [4]: 191.6 u/L | CREATININE [4]: 0.46 mg/dL | GLUCOSE [4]: 145.6 mg/dL | PHOSPHORUS [4]: 12.09 mg/dL | POTASSIUM [4]: 6.67 MEQ/L | SODIUM [4]: 149 MEQ/L | TOTAL BILIRUBIN [4]: 0.23 mg/dL | TOTAL PROTEIN [4]: 6.7 G/DL
